Assay results reported in US7928095B2, “Treatment of resistant or refractory cancers with multi-arm polymeric conjugates of 7-ethyl-10-hydroxycamptothecin” (Enzon Pharmaceuticals, Inc., priority 2007, dated 2011).

Experiments:
[1] = system: refractory human HT-29 colorectal tumor; test: Therapeutic efficacy in CPT-11 refractory human HT-29 colorectal tumor xenografted nude mice; format: in vivo
Experimental: Therapeutic efficacy of four-arm PET-Gly-(7-ethyl-10-hydroxycamptothecin) against a refractory human HT-29 colorectal tumor grown in nude mice was determined. […] When tumors reached an average volume of 100 mm^3, mice were treated with CPT-11 (40 mg/kg/dose; q2d×4). Mice were monitored for tumor growth. […] These mice were selected, randomized and divided into two groups. […] The drugs were administered intravenously via the tail vein.
The data in FIG. 1 represent mean±standard deviation (n=7).

[2] = system: Human HT-29 colorectal tumors; test: Therapeutic efficacy in HT-29 colorectal tumor xenografted mice, second round treatment after CPT-11; format: in vivo, nude mice
Experimental: When tumors reached an average volume of 100 mm^3, mice were treated with CPT-11 (40 mg/kg/dose; q2d×4). Mice were monitored for tumor growth. […] One group was further treated with MTD of CPT-11 (40 mg/kg/dose; q2d×5) and the other group was treated with MTD of four-arm ^40KPEG-Gly-(7-ethyl-10-hydroxycamptothecin) (10 mg/kg/dose q2d×5) starting day 16. The drugs were administered intravenously via the tail vein.
The data in FIG. 2 represent mean±standard deviation (n=10).

[3] = system: CPT-refractory cell line (CEM/C2); conditions: CEM/C2 cells, 2 days at 37° C., MTS; FIG. 3
Experimental: CPT-refractory cell line (CEM/C2) and the corresponding non-refractory parent cell line (CEM) were treated with PEG-Gly-(7-ethyl-10-hydroxycamptothecin), 7-ethyl-10-hydroxycamptothecin, and CPT-11. The CEM/C2 and CEM were obtained from NCI. The CEM cell lines are acute lymphoblastic leukemia cell lines. The in vitro cytotoxicity of each drug was determined using a MTS assay. […] At the end of the incubation, MTS dye was added and incubated for 2 to 3 hours at 37° C. and formation of a colored product (formazan) was measured at 490 nm. The % viability at each drug concentration was calculated as [OD test samples−background]/[OD controls (no treatment)−background]. Sigmoidal dose response curves were generated by plotting Log (Drug) as a function of % viability (survival) and IC50 values were calculated using the GraphPad Prism software.

## CCc1c2c(nc3ccc(OC(=O)N4CCC(N5CCCCC5)CC4)cc13)-c1cc3c(c(=O)n1C2)COC(=O)[C@]3(O)CC [CPT-11, Irinotecan, reference compound]
[1]; by day 42
  animals sacrificed due to excessive tumor burden (>1,650 mm^3): 29%
[1]; by day 54
  animals sacrificed due to excessive tumor burden (>1,650 mm^3): 100%
[2]; as of day 61
  animals sacrificed due to excessive tumor burden: 60%

## four-arm ^40KPEG-Gly-(7-ethyl-10-hydroxycamptothecin) [compound 9]
[3]
  potency relative to CPT-11 (cytotoxicity IC50): about 10 fold
[1]; by day 72
  mice with tumors <1,650 mm^3: 58%
[1]; day 42, CPT-11 refractory mice, 10 mg/kg/dose q2d×5 i.v. starting day 16
  tumor volume decreased compared to day 15: 25%
[1]; on day 63, n=7
  animals sacrificed: 1 of 7
[2]; day 54, CPT-11 sensitive mice, second round treatment q2d×5 i.v. starting day 16
  tumor volume increased compared to day 1: 193%
[2]; on day 61
  deaths recorded: No deaths
